What was measured:
[1] = system: Human primary T cells; experiment: In vitro antigen-independent expansion of T cells expressing constitutive or ACZ-regulated mbIL15 (cell numbers by flow cytometry); type: cell-based; details: 2 ng/mL exogenous IL15
Method: Human primary T cells capable of expressing constitutive mbIL15 or ACZ-regulated mbIL15 were prepared in accordance with methods described in Example 1 above.
After T cell transduction and expansion, CD3/CD28 beads were removed using magnets, cells were washed twice, resuspended in fresh media and counted. Cells were plated in 12-well plates at 1×10^6 in 2 mL. One well of untransduced cells was cultured in the presence of 2 ng/mL IL15 as a control. T cells expressing regulated constructs were cultured in the absence or presence of acetazolamide (ACZ, 30, 10, 3, 1, 0.3 μM). Cell numbers were monitored by flow cytometry every 3-4 days and cells were cultured for 10-12 days. At each time point 100 μL of cells were collected from wells and analyzed by flow cytometry. Cells were split as needed. Cell cultures were maintained in 12-well plates by taking a portion and adding media in a new plate. Volumes for each well were recorded before and after split to calculate final volume in cell number assessment. IL15 or ACZ were replenished at final concentration of the fresh media added during each split.
T cell numbers were determined by flow cytometry. Empty vector (EV) transduced cell numbers decreased to background levels between 3-5 days in the absence of IL15, and cells expanded 11-fold in the presence of 2 ng/mL exogenous IL15 (FIG. 3A). […]

[2] = system: cord blood-derived NK cells; experiment: Expression of constitutive and regulated mbIL15 in cord blood NK cells in response to ACZ (FACS); type: cell-based, human; details: NK cells transduced with IL15-293
Method: Cryopreserved mononuclear cell-fractionated cord blood units were obtained from BioBridge Global. Cord blood was diluted 1:1 with phosphate-buffered saline (PBS) and centrifuged over a cushion of Ficoll-Paque+(Sigma Cat. No. GE17-1440-02). The buffy coat comprising mononuclear cells (MNC) was collected, and the MNC were washed and counted. NK cells were isolated from MNC using EasySep Human NK Cell Isolation Kit (Stemcell Technologies Cat. No. 17955). NK cells were counted and checked for purity by FACS using CD56, CD16, CD3 and viability stain.
One day prior to NK cell isolation as described in Example 8, feeder cells (K562 cells expressing 4-1BBL and mbIL-21) were thawed in complete NK cell media (RPMI with Glutamax (ThermoFisher), 10% heat-inactivated fetal bovine serum (Gibco), 1× Penicillin/Streptomycin, 1 mM Sodium Pyruvate, 1×HEPES, 50 μM 2-Mercaptoethanol). On the day of NK cell isolation, 10×10^6 feeder cells were treated with mitomycin C to inhibit their proliferation and washed to remove excess drug. […] NK cell cultures were expanded by replenishing cell cultures with NK cell media and rhIL2 every two days, and analyzed by FACS for NK cell expansion. […]
mbIL15 expression was determined by flow cytometry using two staining reagents: IL15Ra-Fc and an anti-CD56 antibody. mbIL15+ cell frequency was determined relative to the number of NK cells as determined by the anti-CD56 antibody. […]

[3] = system: TIL; experiment: Expression of constitutive and regulated mbIL15 in TIL in response to ACZ (flow cytometry); type: cell-based, human; details: TIL transduced with IL15-293
Method: HEK293T cells were seeded on collagen coated tissue culture plates until 70% confluent. Cells were transfected with pELNS transfer vector carrying constitutive (IL15-292) or regulated (IL15-293) IL15 constructs, as well as packaging plasmids (pRSV.REV, pMDLg/pRRE and OT-BaEVg-002 (SEQ ID NO: 51)) using Lipofectamine 3000 transfection reagent in Opti-MEM media. Media was replaced 6-8 hrs post-transfection with serum-free media. Supernatants containing virus were harvested 24 hr post-transfection, fresh media was added, and supernatants were harvested again at 48 hr post-transfection. Viral supernatants were filtered to remove debris and concentrated by low speed ultracentrifugation. Virus were resuspended, aliquoted and stored at −80 C freezer.
96-well non-coated tissue culture plates were incubated with 35 μg per mL RetroNectin (Takara Bio) in PBS for 2 h at 37° C. or overnight at 4° C. RetroNectin was removed and the plates washed with PBS. […]
mbIL15 expression was determined by flow cytometry using two staining reagents: fluorochrome-conjugated anti-IL15 antibody as well as a recombinant protein comprised of extracellular domain of IL15Ra fused to human IgG1 Fc domain (IL15Ra-Fc). mbIL15+ cell frequency was determined based on co-staining with anti-IL15 and IL15Ra-Fc (identified as the IL15+IL15Ra-Fc+ double positive population).

| Molecule | Expansion of empty vector (EV) transduced T cells in the presence of exogenous IL15 [1] | Effect of ACZ on mbIL15 in transduced NK [2] | Effect of ACZ on mbIL15 in transduced TIL [3] |
| --- | --- | --- | --- |
| exogenous IL15: exogenous IL15 (2 ng/mL) added to empty vector transduced T cells as control [reference compound] | 11 -fold | – | – |
| CC(=O)Nc1nnc(S(N)(=O)=O)s1 [ACZ, acetazolamide, reference compound] | – | induces CA2 DRD-regulated mbIL15 in transduced NK | induces CA2 DRD-regulated mbIL15 in transduced TIL |
